Experimental data: patent US20090227450A1, “Triazole-Based Fungicidal Mixtures” (BASF Aktiengesellschaft, priority 2005, published 2009)

Tested on: Botrytis cinerea
Assay: Activity against the gray mold pathogen Botrytis cinerea in the microtiter test (Botrci)
Type: cell-based
Conditions: microtiter plate, 405 nm, day 7 after inoculation
Experimental: The expected efficacies of active compound combinations were determined using Colby's formula (Colby, S. R. “Calculating synergistic and antagonistic responses of herbicide combinations”, Weeds, 15, 20-22, 1967) and compared with the observed efficacies.
E=x+y−x·y/100 • E expected efficacy, expressed in % of the untreated control, when using the mixture of the active compounds A and B at the concentrations a and b • x efficacy, expressed in % of the untreated control, when using the active compound A at the concentration a • y efficacy, expressed in % of the untreated control, when using the active compound B at the concentration b
The active compounds were formulated separately as a stock solution having a concentration of 10 000 ppm in DMSO.
The active compound epoxiconazole was used as a commercial formulation.
The stock solution is pipetted onto a microtiter plate (MTP) and diluted to the stated active compound concentration using a malt-based aqueous nutrient medium for fungi. An aqueous spore suspension of Botrytis cinerea was then added. The plates were placed in a water vapor-saturated chamber at temperatures of 18° C. Using an absorption photometer, the MTPs were measured at 405 nm on day 7 after the inoculation. The measured parameters were compared to the growth of the active compound-free control variant and the fungus- and active compound-free blank value to determine the relative growth in % of the pathogens in the individual active compounds.
The visually determined values for the percentage of infected leaf area were initially converted into a mean value and then converted into efficacies in % of the untreated control. An efficacy of 0 means the same degree of infection as in the untreated control, an efficacy of 100 means 0% infection. The expected efficacies for active compound combinations were determined using Colby's formula (Colby, S. R. (Calculating synergistic and antagonistic responses of herbicide combinations”, Weeds, 15, pp. 20-22, 1967) and compared to the observed efficacies.

Compound	Observed effect (%) (conc. 0.004 ppm)	Observed effect (%) (conc. 0.25 ppm)	Observed effect (%) (conc. 0.016 ppm)	Observed effect (%) (conc. 0.063 ppm)
CO/C=C(/C(=O)OC)c1ccccc1COc1cccc(C(F)(F)F)n1 [Picoxystrobin, picoxystrobin]	0%	3%	–	–
Fc1ccc(C2(Cn3cncn3)OC2c2ccccc2Cl)cc1 (stereo not shown) [Epoxiconazole, epoxiconazole]	–	–	15%	48%
